Biological target: T1, ΔF508 expressing CFBE410- lung cells (Homo sapiens, UniProt P13569, DEL508-508)
T1 construct: host or cells: CFBE41o- lung cells
Assay: CFTR folding and trafficking assay (immunoblot of band B and C glycoforms)
Type: cell-based
Settings: CFBE410- lung cells cultured in presence of compound versus DMSO; FIG. 1
Description: CFTR transport assays. Either ΔF508 expressing CFBE410- lung cells were cultured in the presence or absence of reagent in 12 well Sarstedt dishes, harvested, lysed and the processing of CFTR from the band B to the band C glycoform detected by SDS-PAGE and immunoblotting using either monoclonal 3G11 or M3A7.
Quantitation of CFTR glycoforms: Immunoblot exposures were selected to allow visualization of CFTR recovery under identical protein loads in same SDS-PAGE for all treatments. Given the dynamic range, quantitation of the band B and C glycoforms was made by analysis of band intensities that were in the linear range. The x-ray films were exposed for increasing time and the different exposures were quantified using a FluroChemSP (Alpha Inotech) densitometer/software package. Where band B and C were quantified from different exposures, an internal reference was used to normalize the signal intensity. This method is described in more detail in Hutt et al. (2010).^16 Reduced histone deacetylase 7 activity restores function to misfolded CFTR in cystic fibrosis, Nature Chemical Biology (2010), 6(1), 25-33, the contents of which are expressly incorporated by reference herein.

T1 sequence (P13569 with tags, fused parts or gaps DEL508-508): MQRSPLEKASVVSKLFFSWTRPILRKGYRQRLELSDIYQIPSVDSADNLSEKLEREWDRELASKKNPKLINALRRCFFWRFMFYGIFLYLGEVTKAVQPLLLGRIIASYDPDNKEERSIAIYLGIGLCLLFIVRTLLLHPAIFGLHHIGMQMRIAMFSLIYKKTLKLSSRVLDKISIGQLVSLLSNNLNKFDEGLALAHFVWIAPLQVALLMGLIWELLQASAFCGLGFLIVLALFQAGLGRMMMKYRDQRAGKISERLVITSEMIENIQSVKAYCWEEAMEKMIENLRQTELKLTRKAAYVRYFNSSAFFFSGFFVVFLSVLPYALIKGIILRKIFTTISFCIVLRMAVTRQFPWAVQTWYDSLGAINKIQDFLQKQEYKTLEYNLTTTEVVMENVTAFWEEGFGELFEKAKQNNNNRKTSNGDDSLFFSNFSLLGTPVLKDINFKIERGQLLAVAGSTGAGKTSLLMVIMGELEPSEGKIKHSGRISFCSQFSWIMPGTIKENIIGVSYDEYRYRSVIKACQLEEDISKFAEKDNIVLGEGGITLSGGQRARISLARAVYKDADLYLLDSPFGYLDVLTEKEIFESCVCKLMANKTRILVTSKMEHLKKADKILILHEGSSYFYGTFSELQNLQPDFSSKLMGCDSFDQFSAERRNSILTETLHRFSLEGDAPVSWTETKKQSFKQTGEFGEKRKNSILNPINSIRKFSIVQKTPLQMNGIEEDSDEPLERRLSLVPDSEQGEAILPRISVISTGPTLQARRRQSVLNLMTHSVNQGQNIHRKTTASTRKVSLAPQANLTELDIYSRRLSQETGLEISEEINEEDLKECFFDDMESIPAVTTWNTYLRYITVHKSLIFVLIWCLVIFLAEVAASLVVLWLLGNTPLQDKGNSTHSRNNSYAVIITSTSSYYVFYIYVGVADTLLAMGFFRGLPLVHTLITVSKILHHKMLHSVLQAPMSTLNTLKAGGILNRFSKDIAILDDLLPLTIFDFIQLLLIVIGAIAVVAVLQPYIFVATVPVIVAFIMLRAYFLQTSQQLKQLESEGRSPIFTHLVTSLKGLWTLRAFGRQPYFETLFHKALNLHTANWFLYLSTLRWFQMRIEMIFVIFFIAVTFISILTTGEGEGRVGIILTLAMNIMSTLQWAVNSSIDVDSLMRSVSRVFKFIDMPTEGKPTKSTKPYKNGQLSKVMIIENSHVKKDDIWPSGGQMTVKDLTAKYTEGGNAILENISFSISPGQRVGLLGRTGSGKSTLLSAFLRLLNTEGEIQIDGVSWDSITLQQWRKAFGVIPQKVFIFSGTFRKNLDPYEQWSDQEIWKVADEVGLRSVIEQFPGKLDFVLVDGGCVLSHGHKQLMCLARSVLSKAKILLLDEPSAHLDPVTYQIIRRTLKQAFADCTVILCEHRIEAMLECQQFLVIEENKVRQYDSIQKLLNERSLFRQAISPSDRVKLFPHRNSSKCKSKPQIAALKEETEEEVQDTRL

For `CCN1CCc2c(sc(NC(C)=O)c2-c2nc3ccccc3s2)C1` [Example 2, N-(3-(benzo[d]thiazol-2-yl)-6-ethyl-4,5,6,7-tetrahydrothieno[2,3-c]pyridin-2-yl)acetamide], the “levels of CFTR band B and C by immunoblot” value was “enhanced levels of band B and C”.

From US20130072473A1, “COMPOUNDS FOR TREATING PROTEIN FOLDING DISORDERS” (PROTEOSTASIS THERAPEUTICS, INC., priority 2011, published 2013)
